Data on 1 molecule can be found in patent publication US20240122937A1, “TREATING CANCER IN PATIENT WITH PTEN INACTIVATING MUTATION” (TAIHO PHARMACEUTICAL CO., LTD., priority 2021, published 2024).

Data set [1] is described as follows: Phase 2 clinical study, treatment-related adverse events. Type of data set: in vivo, human. As to the method:
(§1) The following examples report the results of phase 2 clinical studies where Compound 1 in tablet form was administered orally to patients with different tumor type. In this trial Compound 1 was administered once/day at a dosage of 16 mg/day or 20 mg/day for a 21 day cycle which was repeated as desired. The compound was also administered intermittently on a schedule of 4 days and 3 days off for 21 days per cycle. The cycle was repeated as desired identifies the adverse events in the trials.
A total of 8 patients (50%) experienced at least 1 treatment-related event of Grade ≥3; the most frequently reported event of this kind was rash and maculopapular rash (25.0%).

Data set [2] deals with tumor in patients with advanced cancer. As to the kind of experiment: Phase 2 clinical study, tumor shrinkage / response. Type of data set: in vivo, human. As to the method:
as §1
The reported shrinkages are over 50% for patient 100-006, about 10% for patients 100-009 and about 5% for patient 200-007.

Data set [3] deals with endometrial cancer harboring PIK3CA mutation; ovarian clear cell carcinoma. As to the kind of experiment: Objective response in patients given oral Compound (1). Type of data set: in vivo, human.
The nature of data set [4]: Storage stability of crystal form. Type of data set: physicochemical. As to the method: Compound (1) can exist in a crystal form having an x-ray diffraction pattern of least 5 diffraction angles)(20±0.2° selected from 7.7°, 9.5°, 10.3°, 12.3°, 14.5°, 15.6°, 16.3°, 17.8°, 18.3°, 19.3°, 20.9°, 22.8°, 24.2°, 25.7°, 26.8°, 27.7°, 29.0°, and 30.1° in a powder x-ray diffraction spectrum. Preferably the crystal form has peaks at diffraction angles)(20±0.2° 7.7°, 9.5°, 10.3°, 12.3°, 14.5°, 15.6°, 16.3°, 17.8°, 18.3°, 20.9°, 22.8°, 24.2°, 25.7°, 26.8°, 27.7°, 29.0°, and 30.1°. […] The method preparing this crystal form is described in U.S. Pat. No. 10,323,044 the content of which is incorporated herein in its entirety.

A short description of data set [5]: Clearance / accumulation in the body. To be noted: in vivo. The source says: A 4 days on and 3 days off cycle in a week is one such cycle, the cycle may be modified to accommodate patients having pharmacokinetics allowing for more days on or requiring more days off such as 5 days on and 2 days off or 3 days on and 4 days off or 6 days on and 1 day off, or 6 days on and 1 day off. The 4 days on and 3 days off regimen or a modified regimen may be repeated for a 21-day cycle or a longer cycle. For example, Compound (1) or its pharmaceutically acceptable salt may be administered consecutively on each of the following four days during a 21-day period: days 1 through 4, days 8 through 11, and days 15 through 18, with a prescribed rest on days 5 through 7, days 12 through 14, and days 19 through 21. Such intermittent administration is applicable also to the combination therapies where Compound (1) or its pharmaceutical acceptable salt is administered in combination with one or more agents.

Take `C[C@]1(O)C[C@@](N)(c2ccc(-c3nc4n(c3-c3ccccc3)COc3ccncc3-4)cc2)C1` [Compound (1)]: in data set [1] (Grade ≥3), the “treatment-related Grade ≥3 AE: hyperglycemia” value worked out at 12.5%; the “treatment-related Grade ≥3 AE: mucositis oral” value is reported as 12.5%; the “treatment-related Grade ≥3 AE: neutrophil count decreased” value is recorded as 12.5%; the “treatment-related Grade ≥3 AE: rash and maculopapular rash” value is 25.0%. In data set [1] (any grade), the “treatment-related AE: decreased appetite” value was 18.8%, the “treatment-related AE: diarrhea” value was 18.8%, the “treatment-related AE: fatigue” value is 37.5% and the “treatment-related AE: hyperglycemia” value was 31.3%. Besides, in data set [1] (any grade), the “treatment-related AE: mucositis oral” value was determined as 18.8%, the “treatment-related AE: nausea” value stood at 12.5% and the “treatment-related AE: pruritus” value was 25.0%. In data set [1] (any grade, up to 20 mg QD / 24 mg intermittent), the “treatment-related AE: rash and maculopapular rash, patients” value stood at 62.5%. The safety profile entry in data set [1] (up to 20 mg QD and 24 mg intermittent dosing, patients with advanced cancer) was “generally acceptable and clinically manageable”. In addition, in data set [2] (of the 15 patients treated, PIDs 100-006, 200-005, 100-009, 200-007), the “patients with tumor shrinkage” value was found to be 4 patients. Further, in data set [2] (patient 100-006), the “response in the target lesion (Lymph Node)” value is given as “complete response” and the tumor shrinkage result is “over 50%”. Also, in data set [2] (patient 100-009), the tumor shrinkage result is listed as “about 10%”. For the same molecule, the tumor shrinkage entry in data set [2] (patient 200-007) is reported as “about 5%”. Also, the “patients with objective response” value in data set [3] (endometrial cancer harboring PIK3CA mutation) is on record as “one”. In addition, the “patients with objective response” value in data set [3] (ovarian clear cell carcinoma) is 3 patients. In data set [4] (room temperature, inferred from 40° C. six-month storage), this molecule gave a shelf life indicated of 24 month. Besides, in data set [4] (stored at 40° C. for six months), the stability on storage entry was “good stability”. Moreover, the “clearance from the body” value in data set [5] is “not cleared from the body quickly but can accumulate in the body”.
